Each structure is given as a SMILES string. Structures can show the parent of a compound that is named as a salt. Where two headings read alike, the source gives them in different places.

For test [1], the target named is T1, c-erbB-2 (baculovirus expressed recombinant intracellular domain) (Homo sapiens, UniProt P04626).
T1 construct: baculovirus expressed, recombinant constructs of the intracellular domains of c-erbB-2 and c-erbB-4 that are constitutively active; made in house
In words: Substrate phosphorylation assay, c-erbB-2. The note with it: ATP and peptide at Km, 30 min, room temperature. It counts as biochemical. On the procedure:
(§1) The substrate phosphorylation assays use baculovirus expressed, recombinant constructs of the intracellular domains of c-erbB-2 and c-erbB-4 that are constitutively active and EGFr isolated from solubilised A431 cell membranes. The method measures the ability of the isolated enzymes to catalyse the transfer of the γ-phosphate from ATP onto tyrosine residues in a biotinylated synthetic peptide (Biotin-[…]. […] The reaction is stopped by the addition of EDTA (final concentration 0.15 mM) and a sample is transferred to a streptavidin-coated 96-well plate. The plate is washed and level of phosphotyrosine on the peptide is determined using a Europium-labelled antiphosphotyrosine antibody and quantified with a time-resolved fluorescence technique.

The target of test [2] is T2, c-erbB-4 (baculovirus expressed recombinant intracellular domain) (Homo sapiens, UniProt Q15303).
T2 construct: baculovirus expressed, recombinant constructs of the intracellular domains of c-erbB-2 and c-erbB-4 that are constitutively active; made in house
T2 sequence (Q15303 676-1308 limits assumed): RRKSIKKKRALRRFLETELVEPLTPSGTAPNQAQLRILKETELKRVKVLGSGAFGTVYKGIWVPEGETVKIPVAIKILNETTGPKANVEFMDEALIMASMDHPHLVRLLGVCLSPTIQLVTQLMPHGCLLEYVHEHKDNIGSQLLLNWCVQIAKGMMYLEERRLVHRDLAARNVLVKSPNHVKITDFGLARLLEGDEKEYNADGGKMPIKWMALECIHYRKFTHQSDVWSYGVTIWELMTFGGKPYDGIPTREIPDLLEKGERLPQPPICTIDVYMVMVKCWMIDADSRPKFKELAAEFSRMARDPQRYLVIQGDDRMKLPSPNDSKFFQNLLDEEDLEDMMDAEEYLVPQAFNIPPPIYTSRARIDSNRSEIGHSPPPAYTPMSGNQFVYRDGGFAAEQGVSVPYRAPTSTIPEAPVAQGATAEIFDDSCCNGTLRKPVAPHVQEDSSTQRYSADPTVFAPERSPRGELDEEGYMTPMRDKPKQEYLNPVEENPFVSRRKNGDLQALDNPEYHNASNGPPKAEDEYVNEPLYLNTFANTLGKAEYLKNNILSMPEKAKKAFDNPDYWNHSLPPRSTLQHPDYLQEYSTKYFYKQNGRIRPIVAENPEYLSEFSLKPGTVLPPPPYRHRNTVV
In words: Substrate phosphorylation assay, c-erbB-4. It is filed as biochemical. The settings on record: ATP and peptide at Km, 30 min, room temperature. The procedure: as §1

In a further test the test system is HB4a erbB-2 cells. Briefly: Cell proliferation assay, HB4a transformed by over-expression of c-erbB-2. It counts as cell-based, human. The note with it: read-out: Cell Proliferation HB4a erbB-2 IC50. The procedure: (§2) The cell proliferation assay uses an immortalised human breast epithelial cell line (HB4a) which has been transformed by over-expression of c-erbB-2. Growth of these cells in low serum is dependent upon the c-erbB-2 tyrosine kinase activity. The specificity of the effect of the test compounds on tyrosine kinase dependent growth over general toxicity is assessed by comparison to an HB4a cell line which has been transfected with ras. Cells are plated at 3000/well in 96-well plates in 0.1 ml medium and allowed to attach overnight, test compound is added in 0.1 ml medium, with a final concentration of 0.5% DMSO, and the plates incubated for 4 days at 37° C. The cells are then examined microscopically for evidence of morphological detransformation and cell mass is estimated by staining with methylene blue and measuring the absorbance at 620 nm. The results are shown in Table 1 below as the IC50 values in nM. Activity against a range of naturally occurring EGFr or c-erbB-2 over-expressing human tumour cell lines (BT474-breast, HN5-head and neck, N87-gastric and Calu3-lung) is assessed with selected compounds by the same methodology. The results are also shown in Table 1 below as the IC50 values in nM.

The next test concerns HB4a ras cells. Briefly: Cell proliferation assay, HB4a transfected with ras (general toxicity comparison). It is filed as cell-based, human. The note with it: read-out: Cell Proliferation HB4a ras IC50. On the procedure:
as §2

In a further test the test system is HN5 cells. In words: Cell proliferation assay, HN5 head and neck tumour cell line. It is filed as cell-based. The settings on record: Homo sapiens, HN5, 96 h; 4 days, methylene blue staining; read-out: Cell Proliferation HN5 IC50. On the procedure:
as §2

Test [3] addresses T3, EGFr isolated from solubilised A431 cell membranes (Homo sapiens, UniProt P00533).
T3 construct: EGFr isolated from solubilised A431 cell membranes; endogenous in cells; host or cells: A431 cell membranes (solubilised)
In words: Substrate phosphorylation assay, EGFr. It counts as biochemical. The settings on record: ATP and peptide at Km, 30 min, room temperature. On the procedure: as §1

Where [4] appears, read: Homo sapiens, HB4a, 96 h, 4 days, methylene blue staining.
Where [5] appears, read: 4 days, methylene blue staining.

T3 sequence (P00533 25-1210): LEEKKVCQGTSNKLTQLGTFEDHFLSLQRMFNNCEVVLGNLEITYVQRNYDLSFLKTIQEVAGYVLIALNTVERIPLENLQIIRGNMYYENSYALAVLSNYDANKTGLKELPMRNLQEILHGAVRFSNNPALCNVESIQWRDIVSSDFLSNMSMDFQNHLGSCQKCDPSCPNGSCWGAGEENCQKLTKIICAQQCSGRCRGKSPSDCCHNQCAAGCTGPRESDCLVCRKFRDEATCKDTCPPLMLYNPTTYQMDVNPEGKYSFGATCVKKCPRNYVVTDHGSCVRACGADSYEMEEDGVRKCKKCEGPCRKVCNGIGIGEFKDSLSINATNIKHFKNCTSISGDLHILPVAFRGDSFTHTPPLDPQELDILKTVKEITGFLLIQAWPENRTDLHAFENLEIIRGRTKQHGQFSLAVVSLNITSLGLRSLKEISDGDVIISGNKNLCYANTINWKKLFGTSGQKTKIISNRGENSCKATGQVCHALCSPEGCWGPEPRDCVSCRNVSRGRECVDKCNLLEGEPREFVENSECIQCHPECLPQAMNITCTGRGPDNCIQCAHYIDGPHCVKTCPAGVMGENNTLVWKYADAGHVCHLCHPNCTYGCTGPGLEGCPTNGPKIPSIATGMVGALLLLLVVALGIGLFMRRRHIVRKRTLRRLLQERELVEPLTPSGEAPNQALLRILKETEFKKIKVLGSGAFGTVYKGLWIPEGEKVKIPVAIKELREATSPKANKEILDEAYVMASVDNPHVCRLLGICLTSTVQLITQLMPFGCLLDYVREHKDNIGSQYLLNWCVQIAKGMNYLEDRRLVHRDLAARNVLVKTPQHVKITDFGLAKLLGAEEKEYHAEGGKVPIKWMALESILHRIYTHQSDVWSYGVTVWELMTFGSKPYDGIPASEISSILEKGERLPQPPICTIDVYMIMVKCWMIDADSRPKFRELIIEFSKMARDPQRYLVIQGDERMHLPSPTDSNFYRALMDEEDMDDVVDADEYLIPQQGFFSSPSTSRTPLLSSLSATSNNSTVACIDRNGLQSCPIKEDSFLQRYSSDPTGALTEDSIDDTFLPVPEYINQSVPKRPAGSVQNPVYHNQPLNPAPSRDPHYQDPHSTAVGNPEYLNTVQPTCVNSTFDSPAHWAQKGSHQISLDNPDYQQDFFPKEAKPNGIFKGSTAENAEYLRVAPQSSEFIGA
T1 sequence (P04626 676-1255 limits assumed): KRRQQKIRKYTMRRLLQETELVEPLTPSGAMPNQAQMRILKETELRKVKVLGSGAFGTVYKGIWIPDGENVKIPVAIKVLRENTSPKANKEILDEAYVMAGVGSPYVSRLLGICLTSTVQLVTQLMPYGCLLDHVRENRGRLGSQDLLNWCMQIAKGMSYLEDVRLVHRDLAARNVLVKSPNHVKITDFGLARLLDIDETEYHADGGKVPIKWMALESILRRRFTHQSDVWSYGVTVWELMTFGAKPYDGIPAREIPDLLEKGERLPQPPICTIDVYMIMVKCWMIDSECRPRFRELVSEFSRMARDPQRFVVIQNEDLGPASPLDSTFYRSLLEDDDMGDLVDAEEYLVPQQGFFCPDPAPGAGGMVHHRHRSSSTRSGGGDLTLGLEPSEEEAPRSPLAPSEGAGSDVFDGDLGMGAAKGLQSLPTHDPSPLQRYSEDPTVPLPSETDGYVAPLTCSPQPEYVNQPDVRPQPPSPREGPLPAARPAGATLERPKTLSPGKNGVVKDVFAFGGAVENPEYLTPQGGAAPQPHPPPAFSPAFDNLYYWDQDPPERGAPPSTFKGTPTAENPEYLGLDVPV

With `Clc1cc2c(Nc3ccc4c(cnn4Cc4ccccc4)c3)ncnc2cn1` [Example 1, (1-Benzyl-1H-indazol-5-yl)-(6-chloro-pyrido[3,4-d]pyrimidin-4-yl)-amine Hydrochloride], the IC50 amounted to 27 nM in test [1] and 48 nM in test [2].
As for `c1ccc(Cn2ncc3cc(Nc4ncnc5cnccc45)ccc32)cc1` [Example 4, (1-Benzyl-1H-indazol-5-yl)-(pyrido[3,4-d]pyrimidin-4-yl)-amine], the IC50 in test [1] is 120 nM; in test [2], 1300 nM; in the test with HB4a erbB-2 cells (setting [4]), 3900 nM; with HB4a ras cells (setting [4]) it was 13000 nM.
Take `CN(C)c1cc2c(Nc3ccc4c(ccn4Cc4ccccc4)c3)ncnc2cn1` [Example 6, N4-(1-Benzyl-1H-indol-5-yl)-N6,N6-dimethyl-pyrido[3,4-d]pyrimidine-4,6-diamine]: the IC50 is 11 nM in test [1], 150 nM in test [2] and 320 nM in the test on HN5 cells.
`CN(C)c1cc2c(Nc3ccc4c(cnn4Cc4ccccn4)c3)ncnc2cn1` [Example 12, N6,N6-Dimethyl-N4-(1-pyridin-2-ylmethyl-1H-indazol-5-yl)-pyrido[3,4-d]pyrimidine-4,6diamine Hydrochloride]: the IC50 in test [3] is 77 nM; in test [1] it was 1 nM; in test [2] it was 3 nM; in the test on HB4a erbB-2 cells (setting [4]), 170 nM; in the test on HB4a ras cells (setting [4]) it was 32000 nM.
In the same order, the values of `CN(C)c1cc2c(Nc3ccc4c(cnn4Cc4cccnc4)c3)ncnc2cn1` [Example 13, N6,N6-Dimethyl-N4-(1-pyridin-3-ylmethyl-1H-indazol-5-yl)-pyrido[3,4-d]pyrimidine-4,6-diamine Hydrochloride] are 370 nM, 50 nM, 2400 nM, 240 nM and 28000 nM.
Consider `Cc1nn(Cc2ccccc2)c2ccc(Nc3ncnc4cnc(N(C)C)cc34)cc12` [Example 14, N4-(1-Benzyl-3-methyl-1H-indazol-5-yl)-N6,N6-dimethyl-pyrido[3,4-d]pyrimidine-4,6-diamine], for which the IC50 in test [3] was 830 nM; in test [1], 430 nM; in test [2], 1500 nM; in the test on HB4a erbB-2 cells (setting [4]) it was 950 nM; in the test on HB4a ras cells (setting [4]), 7900 nM.
As for `CN(C)c1cc2c(Nc3ccc4c(cnn4Cc4ccccc4F)c3)ncnc2cn1` [Example 15, N4-(1-(2-Fluoro-benzyl)1H-indazol-5-yl)-N6,N6-dimethyl-pyrido[3,4-d]pyrimidine-4.6-diamine Hydrochloride], the IC50 in test [1] was found to be 7 nM; in test [2], 4 nM; in the test with HB4a erbB-2 cells (setting [4]), 4 nM; with HB4a ras cells (setting [4]) it was 14000 nM.
On to `CN(C)c1cc2c(Nc3ccc4c(ccn4S(=O)(=O)c4ccccc4)c3)ncnc2cn1` [Example 18, N4-(1-Benzenesulphonyl-1H-indol-5-yl)-N6,N6-dimethyl-pyrido[3,4-d]pyrimidine-4,6-diamine Hydrochloride], for which the IC50 turned out to be 290 nM in test [3]; 98 nM in test [1]; 1700 nM in test [2]; 21 nM with HB4a erbB-2 cells (setting [4]); 19000 nM in the test on HB4a ras cells (setting [4]); 440 nM in the test on HN5 cells.
Turning to `CN(C)c1cc2c(Nc3ccc4c(S(=O)(=O)c5ccccc5)c[nH]c4c3)ncnc2cn1` [Example 19, Hydrochloride], the IC50 in test [3] worked out at 540 nM; in test [1], 6 nM; in test [2], 130 nM; in the test with HB4a erbB-2 cells (Homo sapiens, HB4a, 96 h), 1200 nM; in the test on HB4a ras cells (Homo sapiens, HB4a, 96 h), 33000 nM.
As to `c1ccc(Cn2ncc3cc(Nc4ncnc5cnc(-n6ccnc6)cc45)ccc32)cc1` [Example 20, (1-Benzyl-1H-indazol-5-yl)-(6-imidazol-1-yl-pyrido[3,4-d]pyrimidin-4-yl)-amine], the IC50 in test [3] came out at 4 nM; in test [1] it was 33 nM; in the test with HB4a erbB-2 cells (setting [4]) it was 470 nM; in the test with HB4a ras cells (setting [4]), 14000 nM.
For `c1ccc(Cn2ncc3cc(Nc4ncnc5cnc(-n6cncn6)cc45)ccc32)cc1` [Example 21], the IC50 in test [3] came out at 54 nM; in the test on HB4a erbB-2 cells (setting [5]) it was 500 nM; in the test on HB4a ras cells (setting [5]), 18000 nM.
For the molecule `c1ccc(Cn2ncc3cc(Nc4ncnc5cnc(-n6nccn6)cc45)ccc32)cc1` [Example 22], the IC50 is 22 nM in test [3], 1700 nM in the test on HB4a erbB-2 cells (setting [5]) and 18000 nM in the test with HB4a ras cells (setting [5]).
Consider `c1ccc(Cn2ncc3cc(Nc4ncnc5cnc(-n6ccnn6)cc45)ccc32)cc1` [Example 23], for which the IC50 came out at 31 nM in test [3], 250 nM in the test on HB4a erbB-2 cells (setting [5]) and 22000 nM with HB4a ras cells (setting [5]).
On to `CCN(C)c1cc2c(Nc3ccc4c(cnn4Cc4ccccc4)c3)ncnc2cn1` [Example 26, N4-(1-Benzyl-1H-indazol-5-yl)-N6-ethyl-N6-methyl-pyrido[3,4-d]pyrimidine-4.6-diamine], for which the IC50 is 54 nM in test [3], 29 nM in test [1], 150 nM with HB4a erbB-2 cells (setting [5]) and 8900 nM in the test with HB4a ras cells (setting [5]).
Take `CC(C)NC(=O)CN1CCN(c2cc3c(Nc4ccc5c(cnn5Cc5ccccc5)c4)ncnc3cn2)CC1` [Example 27, 2-(4-(4-(1-Benzyl-1H-indazol-5-ylamino)-pyrido[3,4-d]pyrimidin-6-yl)-piperazin-1-yl)-N-isopropyl-acetamide]: the IC50 in test [1] is 2 nM; in test [2], 190 nM; with HB4a erbB-2 cells (setting [4]), 380 nM; in the test with HB4a ras cells (setting [4]), 21000 nM.
In the same order, the values of `O=C(CN1CCN(c2cc3c(Nc4ccc5c(cnn5Cc5ccccc5)c4)ncnc3cn2)CC1)N1CCOCC1` [Example 28, 2-(4-(4-(1-Benzyl-1H-indazol-5-ylamino)-pyrido[3,4-d]pyrimidin-6-yl)-piperazin-1-yl)-1-morpholin-4-yl-ethanone] are 4 nM, 170 nM, 590 nM and 28000 nM.
Take `Cc1nnc(-c2cc3c(Nc4ccc5c(cnn5Cc5cccc(F)c5)c4)ncnc3cn2)o1` [Example 30, (1-(3-Fluoro-benzyl)-1H-indazol-5-yl)-(6-(5-methyl-1,3,4-oxadiazol-2-yl)-pyrido[3,4-d]pyrimidin-4-yl)-amine Hydrochloride]: the IC50 in test [3] stood at 2 nM; in test [1], 2 nM; in test [2], 9600 nM; with HB4a erbB-2 cells (setting [4]), 2900 nM; in the test with HB4a ras cells (setting [4]), 26000 nM.
For the molecule `c1ccc(COc2cc3c(Nc4ccc5c(cnn5Cc5ccccc5)c4)ncnc3cn2)cc1` [Example 33, (1-Benzyl-1H-indazolyl-5-yl)-(6-benzyloxy-pyrido[3,4-d]pyrimidin-4-yl)-amine Hydrochloride], the IC50 was 1900 nM in test [3]; 140 nM in test [1]; 2700 nM in test [2]; greater than 50000 nM with HB4a erbB-2 cells (setting [4]); 50000 nM in the test with HB4a ras cells (setting [4]).
As for `O=C(O)c1ccc(-c2cc3c(Nc4ccc5c(cnn5Cc5ccccc5)c4)ncnc3cn2)o1` [Example 35, 5-[4-(1-Benzyl-1H-indazol-5-ylamino)-pyrido-[3,4-d]pyrimidin-6-yl]-furan-2-carboxylic Acid Hydrochloride], the IC50 is 1600 nM in test [3], 27000 nM in the test on HB4a erbB-2 cells (setting [4]) and greater than 50000 nM in the test with HB4a ras cells (setting [4]).
With `CS(=O)(=O)CCNC(=O)c1ccc(-c2cc3c(Nc4ccc5c(cnn5Cc5ccccc5)c4)ncnc3cn2)o1` [Example 36, 5-[4-(1-benzyl-1H-indazol-5-ylamino)-pyrido-[3,4-d]pyrimidin-6-yl]-furan-2-carboxylic Acid 2-methanesulphonyl-ethylamide Hydrochloride], the IC50 in test [3] is 1600 nM; with HB4a erbB-2 cells (setting [4]), 3100 nM; in the test on HB4a ras cells (setting [4]), greater than 50000 nM.
Turning to `CN(C)c1cc2c(Nc3ccc4c(cnn4Cc4ccc(O)cc4)c3)ncnc2cn1` [Example 38, N4-[1-(4-Hydroxybenzyl)-1H-indazol-5-yl)-N6,N6-dimethyl-pyrido[3,4-d]pyrimidine-4,6-diamine], the IC50 in test [3] came to 930 nM; in test [1], 330 nM; in test [2], 1900 nM; in the test with HB4a erbB-2 cells (setting [4]), 6900 nM; in the test with HB4a ras cells (setting [4]), 50000 nM.

Source of the values: patent US6723726B1 (SmithKline Beecham Corporation, priority 1996, dated 2004).
